This is an account of results in patent publication US20130085105A1, “Transdermal Administration Of Peptides” (The Provost, Fellows and Scholars of the College of Holy …, priority 2010, published 2013).

Molecules are shown by their SMILES. Like-named read-outs stand apart in the source and are kept apart here.

Data set [1] is described as follows: In vitro transdermal permeation, diffusion cell, pig epidermis. The data set is classed as in vitro ADME, domestic pigs. The following applies: from Jss across pig epidermis, 55/40/5 ethanol/water/cineole; patch area of 20 cm^2. The protocol:
The viable epidermal layer was removed from the flanks of freshly sacrificed four month-old female domestic pigs. The flank area of each animal was carefully shaved and the upper 200 μm of skin (Meyer, W., et al., Curr. Prob. Dermatol., 7: 39-52, 1978; de Jalón, et al., J. Control. Rel., 75:191-197, 2001) was harvested using an electric dermatome (Robbins Instruments, Chatham, N.J., U.S.A.). Pigskin epidermal specimens were frozen at −18° C. between layers of PBS-soaked tissue paper enclosed in aluminum foil for up to two weeks prior to use in in vitro permeation studies.
A custom made finite dosing diffusion cell (AGB Scientific, Dublin, Ireland, FIG. 1) based upon and modified from the Keshary-Chien type diffusion cell was used for in vitro permeation studies.
Three to five diffusion cells were used in each permeation experiment and monitoring was performed over a 48 hour period. The cells were linked in series to a thermostatically controlled circulation bath set at 35° C. to mimic human skin surface temperature. Each cell was placed on a stir-plate set at a defined stirring rate of 1,000 rpm. The surface area for permeation provided by each cell was 3.14 cm^2.
Data collected from each permeation study included:
1) the average maximum flux obtained in 48 hours (Jmax),
2) the total absorption characterized as the total weight of peptide delivered transdermally into the receiver compartment over a 48 hour period,
3) the lag time to detectable flux which was equivalent to the latest sampling time at which no peptide was detectable by HPLC analysis of the receiver solution, and
4) an equivalent 48-hour steady state flux was determined by obtaining the slope of the best-fit line for a plot of cumulative flux per unit area versus time (described by McDaid, D. M. et al., Int. J. Pharm., 133:71-83, 1996).
Fresh hairless mouse skin samples or fresh or freshly thawed pig skin samples were mounted onto the diffusion cell with the SC topmost and in contact with the donor system. A rubber or plastic ring was placed on top of the skin sample to secure it in position. The combination of the diffusion cell top, the skin and the rubber ring was securely fastened together by means of a threaded cap. A recorded volume of receiver solution was added to the receiver compartment and maintained at 35° C. The receiver solution was 60/40 (v/v) PBS/propylene glycol (pH 7.1). The propylene glycol fraction was used to increase the solubility of the somatostatin-fatty acid salts. Previous work reported by Morgan et al. (J. Pharm. Sci., 87:1213-1218, 1998) has shown that a 50/50 water/propylene glycol receptor solution had no detrimental effect on the barrier integrity of both hairless mouse and porcine skin.
The receiver solution was allowed to equilibrate at 35° C. for 30 minutes. The experiment was initiated by the application of 1 ml of donor solution containing approximately 5 mg free base peptide in DMSO to the skin surface followed by sealing of the donor compartment with Parafilm®. A narrow-bore hypodermic needle was used to withdraw 1 ml samples from the receiver compartment via the sampling port; at each sampling time, an equal volume of drug-free receiver solution was immediately added back to the receiver compartment. Samples were analyzed by HPLC.
HPLC determination of peptide content in the receiver solution along with the known surface area of skin used (3.14 cm^2) allowed for calculation of transdermal flux (in units of μg/cm^2/hr) for each time point. Panels 1 and 2 of FIG. 2 show flux profiles obtained for the oleate salts of Compound A and Compound B in DMSO which far exceeded the flux profiles for the myristate, octanoate, decanoate, linoleate, nonanote, acetate and laurate salts of Compound A as well as the acetate salt of Compound B in DMSO. […]

Data set [2] can be described thus: Pharmacokinetics of Compound A after i.v. infusion to healthy human volunteers (Chassard et al.). It counts as in vivo. The method, then: A number of basic equations exist for the prediction of drug plasma levels in humans obtained by transdermal delivery. In order to make use of these equations, basic human pharmacokinetic parameters are required for the drug in question. Chassard et al. (J. Endocrinol. Invest. 20(Supp. to no. 7):30-32, 1997) reported on the pharmacokinetics of Compound A after i.v. infusion of 7, 21 and 42 μg/Kg to healthy human volunteers (n=12) obtaining values as shown in Table 20.
The values obtained for the intermediate dose of 21 μg/Kg were used to determine the necessary input rate, i.e., steady state flux, required in humans to achieve therapeutic plasma levels as outlined by Lee et al. (Res. Comm. Mol. Path. Pharmacol., 85, 337-346, 1994) in their studies on melatonin. […] As described by Chatterjee et al. (Pharm. Res., 14:1058-1065, 1997), the following equation can be used to predict required delivery rates, assuming transdermal delivery can be treated as an intravenous infusion: […]

Data set [3] can be described thus: Calculation of required transdermal delivery rate in humans (Eqn. 10.5). The following applies: human. The protocol: The values obtained for the intermediate dose of 21 μg/Kg were used to determine the necessary input rate, i.e., steady state flux, required in humans to achieve therapeutic plasma levels as outlined by Lee et al. (Res. Comm. Mol. Path. Pharmacol., 85, 337-346, 1994) in their studies on melatonin. […] As described by Chatterjee et al. (Pharm. Res., 14:1058-1065, 1997), the following equation can be used to predict required delivery rates, assuming transdermal delivery can be treated as an intravenous infusion:
where K0 is the required zero order delivery rate to achieve a therapeutic steady state plasma concentration (Cpss). […] Thus, for a skin area of 20 cm^2, the required steady-state transdermal flux would be 0.45 μg/cm^2/hr. Assuming a therapeutic plasma level of 0.5 ng/ml for Compound B and utilizing the relevant Compound A parameters, a required steady-state flux of 0.23 μg/cm^2/hr was calculated for a skin area of 20 cm^2.

For data set [4] the following is noted: human, cited from earlier work.
The conditions of data set [5]: cited from earlier work.
For data set [6] the following is noted: rabbits, iontophoresis; cited from earlier work.
For data set [7] the following is noted: mice, topical with 1% N-decylmethylsulfoxide, within 2 hours of administration; cited from earlier work.

With `CC(C)[C@@H]1NC(=O)[C@H](CCCCN)NC(=O)[C@@H](Cc2c[nH]c3ccccc23)NC(=O)[C@H](Cc2ccc(O)cc2)NC(=O)[C@@H](NC(=O)[C@H](N)Cc2ccc3ccccc3c2)CSSC[C@@H](C(=O)N[C@H](C(N)=O)[C@@H](C)O)NC1=O` [Compound A, D-2-Nal-c(Cys-Tyr-D-Trp-Lys-Val-Cys)-Thr-NH2], the “estimated daily systemic delivery across human skin” value in data set [1] is “approximately 0.675 mg”. Further, the “CL for a 70 Kg human” value in data set [2] (292 (ml/hr)/Kg×70 Kg) is given as 20,440 cm^3/hr. Further, in data set [2] (human, plasma, intravenous, 21 ug/kg, from Vss at 21 μg/Kg multiplied by 70 Kg), the Vd was determined as 13 L. Also, in data set [3] (required Cpss=1 ng/ml, Eqn. 10.5), the “required input rate (K0)” value was 8.98 µg/h. Besides, the “required steady-state transdermal flux” value in data set [3] (skin area of 20 cm^2, Cpss 1 ng/ml (Compound A), 0.5 ng/ml (Compound B, using Compound A parameters)) is listed as 0.45 μg/cm^2/hr. Also, in data set [4] (i.v. infusion 7 μg/Kg), the AUC was 21.2 ± 4.1 (ng/ml)/hr, the CL was 341 ± 62 (ml/hr)/Kg, the Kel is 0.87 ± 0.11 h⁻¹ and the MRTinfusion is 42 ± 6 min. For the same molecule, in data set [4] (i.v. infusion 7 μg/Kg), the Vss was 0.194 ± 0.041 L/kg and the t1/2 is 48 ± 6 min. Besides, in data set [4] (i.v. infusion 21 μg/Kg), the AUC was 74.3 ± 13.7 (ng/ml)/hr, the CL is reported as 292 ± 58 (ml/hr)/Kg, the Kel was 0.69 ± 0.07 h⁻¹ and the MRTinfusion was 48 ± 6 min. Also, in data set [4] (i.v. infusion 21 μg/Kg), the Vss is 0.186 ± 0.044 L/kg and the t1/2 was 60 ± 6 min. Besides, in data set [4] (i.v. infusion 42 μg/Kg), the AUC is given as 180.6 ± 46.6 (ng/ml)/hr, the CL is on record as 249 ± 72 (ml/hr)/Kg, the Kel was 0.43 ± 0.09 h⁻¹ and the MRTinfusion is 54 ± 12 min. Besides, in data set [4] (i.v. infusion 42 μg/Kg), the Vss is 0.187 ± 0.049 L/kg and the t1/2 is 96 ± 18 min.

Consider `CC(C(=O)O)c1ccc(N=[N+]=[N-])cc1` (stereo not shown) [azidoprofen], for which the “flux through hairless mouse skin” value in data set [5] (donor concentration 6 μmol cm-3) was 0.236 μmol cm-2 hr-1; in data set [5] (donor concentration 15 μmol cm-3) it was 0.649 μmol cm-2 hr-1.

On to `C[C@@H](O)[C@@H]1NC(=O)[C@H](CCCCN)NC(=O)[C@@H](Cc2c[nH]c3ccccc23)NC(=O)[C@H](Cc2ccccc2)NC(=O)[C@@H](NC(=O)[C@H](N)Cc2ccccc2)CSSC[C@@H](C(=O)N[C@H](CO)[C@@H](C)O)NC1=O` [octreotide, D-Phe-c(Cys-Phe-D-Trp-Lys-Thr-Cys)-Thr-ol], for which, in data set [6], the apparent bioavailability result is “approximately 8%” and the “therapeutic plasma concentration throughout the iontophoretic episode” value was “greater than 1 ng/ml”. Besides, the “plasma levels of peptide” value in data set [7] is > 8 ng/mL.
